Assay results as given in ChEMBL document CHEMBL5042519, “Design and synthesis of marine sesterterpene analogues as novel estrogen receptor α degraders for breast cancer treatment” (Eur J Med Chem, 2022).
Counter-ions that a name gives are not always drawn. Calls of active or inactive are those of the source. No cut-off for these calls is given here.

Columns and labels:
[1] = Antiproliferative activity against human MCF-10A cells assessed as reduction in cell viability after 48 hrs by MTT assay; format: toxicity, cell-based
MCF7 [2] = experiment: Antiproliferative activity against human MCF7 cells assessed as reduction in cell viability after 48 hrs by MTT assay; format: functional, cell-based; conditions: MCF7, 48 h
MCF7 [3] = experiment: Antiproliferative activity against human MCF7/ADR cells assessed as reduction in cell viability after 48 hrs by MTT assay; format: functional, cell-based; conditions: MCF7, 48 h
[4] = Resistance index, ratio of IC50 for antiproliferative activity against human MCF7/ADR cells to IC50 for antiproliferative activity against human MCF7 cells; format: functional
MDA-MB-231 = experiment: Antiproliferative activity against human MDA-MB-231 cells assessed as reduction in cell viability after 48 hrs by MTT assay; conditions: MDA-MB-231, 48 h
[5] = Selectivity index, ratio of IC50 for antiproliferative activity against human MCF-10A cells to IC50 for antiproliferative activity against human MDA-MB-231 cells by MTT assay; format: toxicity, cell-based; conditions: MCF-10A cells versus MDA-MB-231 cells, read-out: Ratio IC50
[6] = target: T1, Estrogen receptor (Homo sapiens) (UniProt P03372); experiment: Induction of ERalpha degradation in human MCF7 cells assessed as decrease in ERalpha protein expression at 1 uM incubated for 24 hrs by Western blot analysis; format: cell-based
T1 sequence (whole entry): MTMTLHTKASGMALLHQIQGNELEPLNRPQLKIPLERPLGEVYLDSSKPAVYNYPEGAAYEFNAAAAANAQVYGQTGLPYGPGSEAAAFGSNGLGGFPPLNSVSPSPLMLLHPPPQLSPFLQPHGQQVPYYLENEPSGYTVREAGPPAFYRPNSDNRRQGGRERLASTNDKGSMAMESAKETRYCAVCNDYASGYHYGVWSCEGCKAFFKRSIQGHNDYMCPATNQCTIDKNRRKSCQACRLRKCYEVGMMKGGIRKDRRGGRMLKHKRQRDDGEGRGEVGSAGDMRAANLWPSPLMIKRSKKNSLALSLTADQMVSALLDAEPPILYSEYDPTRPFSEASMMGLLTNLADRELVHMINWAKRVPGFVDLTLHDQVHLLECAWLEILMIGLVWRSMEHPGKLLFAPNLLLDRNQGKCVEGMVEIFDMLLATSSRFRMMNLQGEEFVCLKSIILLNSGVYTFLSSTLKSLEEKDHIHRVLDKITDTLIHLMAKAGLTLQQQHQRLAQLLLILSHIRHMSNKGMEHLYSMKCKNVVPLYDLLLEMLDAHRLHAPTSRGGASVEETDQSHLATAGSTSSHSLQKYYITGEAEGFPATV

SMILES	IC50 (MCF7 [2]) [µM]	IC50 (MCF7 [3]) [µM]	IC50 (MDA-MB-231) [µM]	Activity [6]	IC50 at 48 h [1] [µM]	Ratio IC50 [4]	selectivity ratio [5]
CCCCCCCCOC(=O)/C=C\C=C/[C@H](C)[C@H]1CC[C@]2(C)C[C@@H]3C(C)=CC(=O)[C@H]3/C(C=O)=C\C[C@@H]12	1.78	0.98	0.52			0.55	
CC1=CC(=O)[C@H]2/C(C=O)=C\C[C@H]3[C@@H]([C@@H](C)/C=C/C(=O)OCCCOC(=O)CC45CC6CC(CC(C6)C4)C5)CC[C@]3(C)C[C@H]12	1.82	0.7	0.29			0.38	
CCCCCCCCCCOC(=O)/C=C\C=C/[C@H](C)[C@H]1CC[C@]2(C)C[C@@H]3C(C)=CC(=O)[C@H]3/C(C=O)=C\C[C@@H]12	1.85	1.26	0.91			0.68	
CC1=CC(=O)[C@H]2/C(C=O)=C\C[C@H]3[C@@H]([C@@H](C)/C=C\C=C/C(=O)OCCCCCCCCOC(=O)CC45CC6CC(CC(C6)C4)C5)CC[C@]3(C)C[C@H]12	1.76	1.49	0.69			0.85	
COc1cccc2c1C(=O)c1c(O)c3c(c(O)c1C2=O)C[C@@](O)(C(=O)CO)C[C@@H]3O[C@H]1C[C@H](N)[C@H](O)[C@H](C)O1 [DOXORUBICIN HYDROCHLORIDE]					0.86		
CC1=CC(=O)[C@H]2/C(C=O)=C\C[C@H]3[C@@H]([C@@H](C)/C=C\C=C/C(=O)OCCCOC(=O)CC45CC6CC(CC(C6)C4)C5)CC[C@]3(C)C[C@H]12	1.45	0.96	0.44			0.66	
CC1=CC(=O)[C@H]2/C(C=O)=C\C[C@H]3[C@@H]([C@@H](C)/C=C\C=C/C(=O)OC45CC6CC(CC(C6)C4)C5)CC[C@]3(C)C[C@H]12	1.08	1.04	1.08	Active		0.96	
CC1=CC(=O)[C@H]2/C(C=O)=C\C[C@H]3[C@@H]([C@@H](C)/C=C/C(=O)OC45CC6CC(CC(C6)C4)C5)CC[C@]3(C)C[C@H]12	0.59	0.61	0.95	Active		1.03	
CC1=CC(=O)[C@H]2/C(C=O)=C\C[C@H]3[C@@H]([C@@H](C)/C=C\C=C/C(=O)OCCOCCOOC(=O)CC45CC6CC(CC(C6)C4)C5)CC[C@]3(C)C[C@H]12	> 10	> 10	> 10				
CCCCCCCCCOC(=O)/C=C\C=C/[C@H](C)[C@H]1CC[C@]2(C)C[C@@H]3C(C)=CC(=O)[C@H]3/C(C=O)=C\C[C@@H]12	2.53	1.12	0.77		4.83	0.44	1.91
CCCCCCCOC(=O)/C=C\C=C/[C@H](C)[C@H]1CC[C@]2(C)C[C@@H]3C(C)=CC(=O)[C@H]3/C(C=O)=C\C[C@@H]12	1.38	0.94	0.69	Active		0.68	
CC1=CC(=O)[C@H]2/C(C=O)=C\C[C@H]3[C@@H]([C@@H](C)/C=C/C(=O)OCCOCCOC(=O)CC45CC6CC(CC(C6)C4)C5)CC[C@]3(C)C[C@H]12	1.04	1.11	0.77			1.07	
CC1=CC(=O)[C@H]2/C(C=O)=C\C[C@H]3[C@@H]([C@@H](C)/C=C\C=C/C(=O)OCCOCCOCCOCCOC(=O)CC45CC6CC(CC(C6)C4)C5)CC[C@]3(C)C[C@H]12	1.26	2.03	1.01	Active		1.61	
CC1=CC(=O)[C@H]2/C(C=O)=C\C[C@H]3[C@@H]([C@@H](C)/C=C/C(=O)OCCCCCCCCOC(=O)CC45CC6CC(CC(C6)C4)C5)CC[C@]3(C)C[C@H]12	2.87	1.91	0.75			0.67	
CC1=CC(=O)[C@H]2/C(C=O)=C\C[C@H]3[C@@H]([C@@H](C)/C=C\C=C/C(=O)OCCOCCOC(=O)CC45CC6CC(CC(C6)C4)C5)CC[C@]3(C)C[C@H]12	0.69	0.87	0.54	Active	2.4	1.26	3.48

Now from value to compound, other results behind:

IC50 (MCF7 [2]) [µM]	IC50 (MCF7 [3]) [µM]	IC50 (MDA-MB-231) [µM]	Activity [6]	SMILES	IC50 at 48 h [1] [µM]	Ratio IC50 [4]	selectivity ratio [5]
1.66	1.03	0.3		CCCCCCCCCCOC(=O)/C=C/[C@H](C)[C@H]1CC[C@]2(C)C[C@@H]3C(C)=CC(=O)[C@H]3/C(C=O)=C\C[C@@H]12	2.16	0.62	1.3
1.84	1.63	0.86		CCCCCCOC(=O)/C=C/[C@H](C)[C@H]1CC[C@]2(C)C[C@@H]3C(C)=CC(=O)[C@H]3/C(C=O)=C\C[C@@H]12		0.89	
1.04	0.79	0.64	Active	CCCCCCOC(=O)/C=C\C=C/[C@H](C)[C@H]1CC[C@]2(C)C[C@@H]3C(C)=CC(=O)[C@H]3/C(C=O)=C\C[C@@H]12	1.58	0.76	1.52
1.81	0.73	0.57		CCCCCCCCCOC(=O)/C=C/[C@H](C)[C@H]1CC[C@]2(C)C[C@@H]3C(C)=CC(=O)[C@H]3/C(C=O)=C\C[C@@H]12		0.4	
2.95	1.98	2.41		CCCCCOC(=O)/C=C/[C@H](C)[C@H]1CC[C@]2(C)C[C@@H]3C(C)=CC(=O)[C@H]3/C(C=O)=C\C[C@@H]12		0.67	
1.04	1.15	0.73	Active	CC1=CC(=O)[C@H]2/C(C=O)=C\C[C@H]3[C@@H]([C@@H](C)/C=C/C(=O)OCCOCCOCCOC(=O)CC45CC6CC(CC(C6)C4)C5)CC[C@]3(C)C[C@H]12		1.11	
4.85	3.26	2.32		COCCOCCOCCOC(=O)/C=C\C=C/[C@H](C)[C@H]1CC[C@]2(C)C[C@@H]3C(C)=CC(=O)[C@H]3/C(C=O)=C\C[C@@H]12		0.67	
1.42	0.52	0.42		CCCCCCCCOC(=O)/C=C/[C@H](C)[C@H]1CC[C@]2(C)C[C@@H]3C(C)=CC(=O)[C@H]3/C(C=O)=C\C[C@@H]12	1.57	0.37	1.11
1.45	1.86	1.37		CCCCOC(=O)/C=C\C=C/[C@H](C)[C@H]1CC[C@]2(C)C[C@@H]3C(C)=CC(=O)[C@H]3/C(C=O)=C\C[C@@H]12		1.28	
3.79	2.26	3.16		COCCOCCOCCOC(=O)/C=C/[C@H](C)[C@H]1CC[C@]2(C)C[C@@H]3C(C)=CC(=O)[C@H]3/C(C=O)=C\C[C@@H]12		0.6	
2.19	1.28	0.97		CCCCCCCOC(=O)/C=C/[C@H](C)[C@H]1CC[C@]2(C)C[C@@H]3C(C)=CC(=O)[C@H]3/C(C=O)=C\C[C@@H]12		0.58	
0.96	0.86	0.93	Active	CC1=CC(=O)[C@H]2/C(C=O)=C\C[C@H]3[C@@H]([C@@H](C)/C=C/C(=O)OCCOCCOCCOCCOC(=O)CC45CC6CC(CC(C6)C4)C5)CC[C@]3(C)C[C@H]12		0.9	
2.25	1.69	1.47		CCCCOC(=O)/C=C/[C@H](C)[C@H]1CC[C@]2(C)C[C@@H]3C(C)=CC(=O)[C@H]3/C(C=O)=C\C[C@@H]12		0.75	
1.84	1.37	1.66		CCCCCOC(=O)/C=C\C=C/[C@H](C)[C@H]1CC[C@]2(C)C[C@@H]3C(C)=CC(=O)[C@H]3/C(C=O)=C\C[C@@H]12		0.74	
